# Laboratory results reported in publication PMC9211429 (Antimicrobial Agents and Chemotherapy, 2022).
# Columns and labels:
# clinical [1] = details: human, in vivo; for AUC(0-t): AUC0-24 PBMC
# HIV = tested on: HIV; parameters: method as in earlier work; details: cited from earlier work
# [2] = human, in vivo
# clinical [3] = details: human, in vivo, AUC0-24 Plasma
smiles,measurement,setting,value
"CC(C)CN(C[C@@H](O)[C@H](Cc1ccccc1)NC(=O)O[C@H]1CO[C@H]2OCC[C@H]21)S(=O)(=O)c1ccc(N)cc1 [DRV, darunavir]",AUC(0-t),clinical [1],17500 ng·h/mL
same,90% effective concentration (EC90),HIV,0.2 µg/mL
"C[C@@H]1CCO[C@H]2Cn3cc(C(=O)NCc4ccc(F)cc4F)c(=O)c(O)c3C(=O)N12 [DTG, dolutegravir]",AUC0-24 PBMC,[2],12807 ng·h/mL
same,AUC(0-t),clinical [1],14900 ng·h/mL
same,Kp,"clinical [1]; Ctrough in PBMC relative to plasma, throughout the protocol",~0.25
same,Kp,clinical [1]; PBMC/Plasma Ctrough ratio,0.19
same,AUC0-24 Plasma,"human, in vivo",30967 ng·h/mL
same,AUC(0-t),clinical [3],31600 ng·h/mL
"CO[C@H]1/C=C/O[C@@]2(C)Oc3c(C)c(O)c4c(O)c(c(/C=N/N5CCN(C)CC5)c(O)c4c3C2=O)NC(=O)/C(C)=C\C=C\[C@H](C)[C@H](O)[C@@H](C)[C@@H](O)[C@@H](C)[C@H](OC(C)=O)[C@@H]1C [RIF, rifampicin]",Cmax Plasma,"median, DRV/RTV 1600/200 QD + DTG + RIF (n = 4)",11240 ng/mL
"CC(C)c1nc(CN(C)C(=O)N[C@H](C(=O)N[C@@H](Cc2ccccc2)C[C@H](O)[C@H](Cc2ccccc2)NC(=O)OCc2cncs2)C(C)C)cs1 [RTV, ritonavir]",AUC(0-t),clinical [1],9830 ng·h/mL
same,AUC(0-t),clinical [3],6070 ng·h/mL
